For one molecule, Drug uptake, Activity and Ratio results are on record in ChEMBL document CHEMBL1142181, “Quantitative immunoassay to measure plasma and intracellular atazanavir levels: analysis of drug accumulation in cultured T cells” (Antimicrob Agents Chemother, 2007).

Common to all, as to format: ADME, cell-based
Series [1] can be described thus: Intracellular drug level in CEM CCL19 cells at 0.2 ug/ml after 24 hrs. The following applies: human, ccrf-cem.
Series [2] can be described thus: Decrease in accumulation of the drug in CEM CCL19 cells in presence of 28 uM Nevirapine relative to control. The following applies: human, ccrf-cem. Further details: scale not given: the % may be the effect or the level left.
Series [3] concerns PBMC. Briefly: Ratio of intracellular drug level to extracellular drug level in human PBMC at 2 ug/ml after 24 hrs.
Series [4] can be described thus: Increase in accumulation of the drug in CEM CCL19 cells in presence of 24 uM Efavirenz relative to control. The settings on record: human, ccrf-cem.
Series [5] in a line: Intracellular drug level in CEM CCL19 cells at 2 ug/ml after 24 hrs. The settings on record: human, ccrf-cem.
Series [6] can be described thus: Ratio of intracellular drug level to extracellular drug level in CEM CCL19 cells at 0.2 ug/ml after 24 hrs. The settings on record: human, ccrf-cem.
In series [7] the test system is PBMC. Briefly: Ratio of intracellular drug level to extracellular drug level in human PBMC at 20 ug/ml after 24 hrs.
The subject of series [8] is PBMC. In words: Ratio of intracellular drug level to extracellular drug level in human PBMC at 0.2 ug/ml after 24 hrs.
The nature of series [9]: Increase in accumulation of the drug in CEM CCL19 cells in presence of 50 uM Probenecid relative to control. The settings on record: human, ccrf-cem.
Series [10] can be described thus: Increase in accumulation of the drug in CEM CCL19 cells in presence of 50 uM Dipyridamole relative to control. The following applies: human, ccrf-cem.
Series [11] is described as follows: Ratio of intracellular drug level to extracellular drug level in CEM CCL19 cells at 2 ug/ml after 24 hrs. The following applies: human, ccrf-cem.
Series [12] can be described thus: Ratio of intracellular drug level to extracellular drug level in CEM CCL19 cells at 20 ug/ml after 24 hrs. The following applies: human, ccrf-cem.
Series [13] in a line: Intracellular drug level in CEM CCL19 cells at 20 ug/ml after 24 hrs. The following applies: human, ccrf-cem.
Series [14] deals with PBMC. Briefly: Intracellular drug level in human PBMC at 2 ug/ml after 24 hrs.
Series [15] has as its system PBMC. Briefly: Intracellular drug level in human PBMC at 0.2 ug/ml after 24 hrs.
Series [16] deals with PBMC. In words: Intracellular drug level in human PBMC at 20 ug/ml after 24 hrs.
A short description of series [17]: Increase in accumulation of the drug in CEM CCL19 cells in presence of 50 uM Verapamil relative to control. The settings on record: human, ccrf-cem.

Structures are written as SMILES.

In the case of `COC(=O)N[C@H](C(=O)N[C@@H](Cc1ccccc1)[C@@H](O)CN(Cc1ccc(-c2ccccn2)cc1)NC(=O)[C@@H](NC(=O)OC)C(C)(C)C)C(C)(C)C` [ATAZANAVIR], the Drug uptake in series [1] came to 0.0887 µg/mL; in series [5] it was 0.2049 µg/mL; in series [13] it was 0.8423 µg/mL; with PBMC [14], 5.409 µg/mL; with PBMC [15], 3.838 µg/mL; in the series on PBMC [16], 12.048 µg/mL. Besides, the Activity in series [2] is reported as 50%; in series [4], 125%; in [9] it was 25%; in series [10] it was 125%; in series [17], 70%. Moreover, the Ratio in the series with PBMC [3] worked out at 2.7; in series [6], 0.44; in the series with PBMC [7], 0.602; in the series on PBMC [8], 19.2; in [11] it was 0.1; in series [12], 0.04.
